Test [1] has as its target BRD4 (BD1+BD2) bromodomain (Homo sapiens (Human), UniProt O60885). Kind of test: BRD4 binding inhibition (AlphaScreen, GST-BRD4 vs tetraacetylated histone H4 peptide). The essentials:
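GST-BRD4 (BD1+BD2) and biotinylated tetraacetyl-histone H4 peptide, each at 100 nM in HEPES pH 7.4 buffer with BSA and DTT, were combined with compound. Glutathione acceptor and streptavidin donor beads were added, then incubated 30 min at room temperature in the dark. Read-out was AlphaScreen signal.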
On the technique in general: In Alpha technology, singlet oxygen from a donor bead excites a nearby acceptor bead.

In test [2] the test system is acute myelogenous leukemia cells (MV-4-11 cells). Description: Cytotoxicity to acute myelogenous leukemia cells (MV-4-11 cells), CCK-8. To be noted: Homo sapiens, MV4-11, 72 h.
Procedure: The following experiment was performed to evaluate the cytotoxicity of [1,2,4]triazolo[4,3-a]quinoxaline derivative according to the present invention to acute myelogenous leukemia cells (MV-4-11 cells).
Acute myelogenous leukemia cells (MV-4-11 cells) were distributed in a 96 well plate at the density of 5×10^3 cells/well. The plated cells were treated with the compounds of the present invention dissolved in DMSO at the different concentrations ranging from 0.01 μM to 10 μM. 72 hours later, the activities of the compounds were determined using CCK-8 reagent.
[3] abbreviates: GST-BRD4 (BD1+BD2) / biotinylated acetyl-histone H4 (Lys5,8,12,16) peptide, read-out: IC50, BRD4 binding inhibition.
The mark [4] stands for this setting: GST-BRD4 (BD1+BD2) vs biotinylated acetyl-histone H4 peptide, AlphaScreen, read-out: BRD4 IC50.
The mark [5] stands for this setting: read-out: IC50, cytotoxicity against acute myelogenous leukemia cells.
Where [6] appears, read: read-out: MV-4-11 Cytotoxicity IC50.

Like-named read-outs stand apart in the source and are kept apart here. Some results are limits rather than exact numbers.

The term IC50 denotes the concentration at which inhibition is half-maximal. In the case of `COCCOc1ccc2c(c1)nc(NCCCCNC(=O)OC1CCCC1)c1nnc(C)n12` [Example 371, {4-[7-(2-methoxy-ethoxy)-1-methyl-[1,2,4]triazolo[4,3-a]quinoxaline-4-ylamino]-butyl}-carbamic acid cyclopentylester], the IC50 in test [1] (setting [3]) was at most 0.01 µM; in test [1] (setting [4]), 0.007 µM; in test [2] (setting [5]), at most 0.2 µM; in test [2] (setting [6]), 0.119 µM.

Take `Cc1nnc2c(NCCCCNC(=O)Cc3cccs3)nc3cc(OCCN4CCOCC4)ccc3n12` [Example 438, N-{4-[1-methyl-7-(2-morpholine-4-yl-ethoxy)-[1,2,4]triazolo[4,3-a]quinoxaline-4-ylamino]-butyl}-2-thiophene-2-yl-acetamide]: the IC50 is at most 0.05 µM in test [1] (setting [3]), 0.037 µM in test [1] (setting [4]), at most 0.2 µM in test [2] (setting [5]) and 0.033 µM in test [2] (setting [6]).

In the case of `Cc1nnc2c(NCCCCNC(=O)[C@@H](F)C(C)C)nc3cc(N4CCOCC4)ccc3n12` [Example 500, 2-(S)-fluoro-3-methyl-N-[4-(1-methyl-7-morpholine-4-yl-[1,2,4]triazolo[4,3-a]quinoxaline-4-ylamino)-butyl]-butyramide], the 50% inhibitory concentration (IC50) in test [1] (setting [3]) was at most 0.05 µM; in test [1] (setting [4]) it was 0.04 µM; in test [2] (setting [5]), at most 0.2 µM; in test [2] (setting [6]), 0.098 µM.

Turning to `Cc1nnc2c(NCCCCNC(=O)OC(C)(C)C)nc3cc(OCCN4CCOCC4)ccc3n12` [Example 430, {4-[1-methyl-7-(2-morpholine-4-yl-ethoxy)-[1,2,4]triazolo[4,3-a]quinoxaline-4-ylamino]-butyl}-carbamic acid-tert-butylester], the IC50 was at most 0.05 µM in test [1] (setting [3]), 0.022 µM in test [1] (setting [4]) and 0.6 µM in test [2] (setting [6]).

For the molecule `CCCNc1ccc2c(c1)nc(NCCCCNC(=O)CC(C)C)c1nnc(C)n12` [Example 253, 3-methyl-N-[4-(1-methyl-7-propylamino-[1,2,4]triazolo[4,3-a]quinoxaline-4-ylamino)-butyl]-butyramide], the results for the IC50 in test [1] (setting [3]), in test [1] (setting [4]) and in test [2] (setting [6]) were at most 0.05 µM, 0.05 µM and 0.235 µM, respectively.

For the molecule `COCCOc1ccc2c(c1)nc(NCCCCNC(=O)c1ccccc1Cl)c1nnc(C)n12` [Example 411, 2-chloro-N-{4-[7-(2-methoxy-ethoxy)-1-methyl-[1,2,4]triazolo[4,3-a]quinoxaline-4-ylamino]-butyl}-benzamide], the IC50 in test [1] (setting [3]) is at most 0.05 µM; in test [1] (setting [4]), 0.019 µM; in test [2] (setting [5]), at most 0.2 µM; in test [2] (setting [6]) it was 0.15 µM.

Turning to `COc1cc2nc(NCCCCNC(=O)CC(C)C)c3nnc(C)n3c2cc1NC(=O)Nc1ccccc1` [Example 568, N-{4-[7-methoxy-1-methyl-8-(3-phenyl-ureido)-[1,2,4]triazolo[4,3-a]quinoxaline-4-ylamino]-butyl}-3-methyl-butyramide], the figures for the IC50 in test [1] (setting [3]), in test [1] (setting [4]) and in test [2] (setting [6]) were at most 0.05 µM, 0.028 µM and 0.658 µM, respectively.

In the case of `COc1cc2nc(NCCCCNC(=O)OCc3ccccc3)c3nnc(C)n3c2cc1OC` [Example 68, [4-(7,8-dimethoxy-1-methyl-[1,2,4]triazolo[4,3-a]quinoxaline-4-ylamino)-butyl]-carbamic acid benzylester], the IC50 in test [1] (setting [3]) is at most 0.05 µM; in test [1] (setting [4]), 0.038 µM; in test [2] (setting [6]), 0.45 µM.

For `COCCOc1cc2nc(NCCCCNC(=O)OC(C)(C)C)c3nnc(C)n3c2cc1OCCOC` [Example 162, {4-[7,8-bis-(2-methoxy-ethoxy)-1-methyl-[1,2,4]triazolo[4,3-a]quinoxaline-4-ylamino]-butyl}-carbamic acid-tert-butylester], the IC50 was at most 0.05 µM in test [1] (setting [3]), 0.024 µM in test [1] (setting [4]) and 0.64 µM in test [2] (setting [6]).

As for `COc1cc(C)c2nc(NCCCCNC(=O)CC(C)C)c3nnc(C)n3c2c1` [Example 160, N-[4-(8-methoxy-1,6-dimethyl-[1,2,4]triazolo[4,3-a]quinoxaline-4-ylamino)-butyl]-3-methyl-butyramide], the IC50 in test [1] (setting [3]) was at most 0.05 µM; in test [1] (setting [4]), 0.028 µM; in test [2] (setting [5]), at most 0.2 µM; in test [2] (setting [6]), 0.07 µM.

With `COc1cc2nc(NCCCCNC(=O)Cc3cccs3)c3nnc(C)n3c2cc1C(F)(F)F` [Example 480, N-[4-(7-methoxy-1-methyl-8-trifluoromethyl-[1,2,4]triazolo[4,3-a]quinoxaline-4-ylamino)-butyl]-2-thiophene-2-yl-acetamide], the IC50 in test [1] (setting [3]) is at most 0.01 µM; in test [1] (setting [4]), 0.009 µM; in test [2] (setting [5]), at most 0.2 µM; in test [2] (setting [6]), 0.08 µM.

Take `Cc1nnc2c(NCCCCNC(=O)OC(C)C)nc3cc(OCCN4CCOCC4)ccc3n12` [Example 436, {4-[1-methyl-7-(2-morpholine-4-yl-ethoxy)-[1,2,4]triazolo[4,3-a]quinoxaline-4-ylamino]-butyl}-carbamic acid isopropylester]: the IC50 was at most 0.05 µM in test [1] (setting [3]), 0.018 µM in test [1] (setting [4]), at most 0.2 µM in test [2] (setting [5]) and 0.16 µM in test [2] (setting [6]).

For `CCC(CC)C(=O)NCCCCNc1nc2cc(OC)c(OC)cc2n2c(C)nnc12` [Example 78, N-[4-(7,8-dimethoxy-1-methyl-[1,2,4]triazolo[4,3-a]quinoxaline-4-ylamino)-butyl]-2-ethyl-butyramide], the IC50 in test [1] (setting [3]) was at most 0.05 µM; in test [1] (setting [4]), 0.02 µM; in test [2] (setting [5]) it was at most 0.2 µM; in test [2] (setting [6]), 0.14 µM.

Regarding `Cc1nnc2c(NCCCCNC(=O)[C@@H](NS(C)(=O)=O)C(C)C)nc3cc(N4CCOCC4)ccc3n12` [Example 505, 2-(S)-methanesulfonylamino-3-methyl-N-[4-(1-methyl-7-morphonyl-4-yl-[1,2,4]triazolo[4,3-a]quinoxaline-4-ylamino)-butyl]-butyramide], the figures for the IC50 in test [1] (setting [3]), in test [1] (setting [4]) and in test [2] (setting [6]) were at most 0.05 µM, 0.026 µM and 0.533 µM, respectively.

On to `Cc1nnc2c(NCCCCNC(=O)OC(C)C)nc3cc4c(cc3n12)OCCO4` [Example 188, [4-(1-methyl-8,9-dihydro-7,10-dioxa-2,3,5,11b-tetraaza-cyclopenta[a]anthracene-4-ylamino)-butyl]-carbamic acid isopropylester], for which the IC50 in test [1] (setting [3]) is at most 0.05 µM; in test [1] (setting [4]), 0.025 µM; in test [2] (setting [5]) it was at most 0.2 µM; in test [2] (setting [6]), 0.17 µM.

With `Cc1nnc2c(NCCCCNC(=O)[C@@H](NC(=O)C(C)(C)C)C(C)C)nc3cc(N4C[C@@H](C)O[C@@H](C)C4)ccc3n12` [Example 519], the results for the half-inhibitory concentration (IC50) in test [1] (setting [3]), in test [1] (setting [4]) and in test [2] (setting [6]) were at most 0.05 µM, 0.049 µM and 0.4 µM, respectively.

Take `COc1cc2nc(NCCCCNC(=O)CC(C)C)c3nnc(C)n3c2cc1NC(=S)NC(C)C` [Example 569, N-{4-[8-(3-isopropyl-thioureido)-7-methoxy-1-methyl-[1,2,4]triazolo[4,3-a]quinoxaline-4-ylamino]-butyl}-3-methyl-butyramide]: the results for the half-inhibitory concentration (IC50) in test [1] (setting [3]), in test [1] (setting [4]) and in test [2] (setting [6]) were at most 0.05 µM, 0.011 µM and 0.237 µM, respectively.

With `Cc1nnc2c(NCCCCNC(=O)c3ccccc3Cl)nc3cc(OC(C)C)ccc3n12` [Example 454, 2-chloro-N-[4-(7-isopropoxy-1-methyl-[1,2,4]triazolo[4,3-a]quinoxaline-4-ylamino)-butyl]-benzamide], the IC50 was at most 0.05 µM in test [1] (setting [3]), 0.011 µM in test [1] (setting [4]), at most 0.2 µM in test [2] (setting [5]) and 0.08 µM in test [2] (setting [6]).

As to `Cc1nnc2c(NCCCCNC(=O)[C@@H](NC(=O)OC(C)(C)C)C(C)C)nc3cc(N4C[C@@H](C)O[C@@H](C)C4)ccc3n12` [Example 513, (S)-{2-methyl-1-[4-(1-methyl-7-(2,6-dimethyl-morpholine-4-yl)-[1,2,4]triazolo[4,3-a]quinoxaline-4-ylamino)-butylcarbamoyl]-propyl}-carbamic acid-tert-butylester], the IC50 in test [1] (setting [3]) was at most 0.05 µM; in test [1] (setting [4]), 0.019 µM; in test [2] (setting [6]), 0.279 µM.

As to `Cc1nnc2c(NCCCCNC(=O)Cc3cccs3)nc3cc(-n4ccnc4)ccc3n12` [Example 496, N-[4-(7-imidazole-1-yl-1-methyl-[1,2,4]triazolo[4,3-a]quinoxaline-4-ylamino)-butyl]-2-thiophene-2-yl-acetamide], the IC50 was at most 0.01 µM in test [1] (setting [3]), 0.01 µM in test [1] (setting [4]), at most 0.2 µM in test [2] (setting [5]) and 0.02 µM in test [2] (setting [6]).

`Cc1nnc2c(NCCCCNC(=O)CCC(C)C)nc3cc(-c4nc5ccccc5n4C)ccc3n12` [Example 236, 4-methyl-pentanoic acid-{4-[1-methyl-7-(1-methyl-1H-benzoimidazole-2-yl)-[1,2,4]triazolo[4,3-a]quinoxaline-4-ylamino]-butyl}-amide]: the IC50 in test [1] (setting [3]) is at most 0.01 µM; in test [1] (setting [4]), 0.002 µM; in test [2] (setting [5]), at most 0.2 µM; in test [2] (setting [6]), 0.087 µM.

`Cc1nnc2c(NCCCCNC(=O)Cc3cccs3)nc3cc(N4CCOCC4)ccc3n12` [Example 507, N-[4-(1-methyl-7-morpholine-4-yl-[1,2,4]triazolo[4,3-a]quinoxaline-4-ylamino)-butyl]-2-thiophene-2-yl-acetamide]: the IC50 is at most 0.05 µM in test [1] (setting [3]), 0.011 µM in test [1] (setting [4]), at most 0.2 µM in test [2] (setting [5]) and 0.021 µM in test [2] (setting [6]).

Regarding `COC(=O)c1ccc2c(c1)nc(NCCCCNC(=O)CC(C)C)c1nnc(C)n12` [Example 199, 1-methyl-4-[4-(3-methyl-butyrylamino)-butylamino]-[1,2,4]triazolo[4,3-a]quinoxaline-7-carboxylic acid methylester], the IC50 in test [1] (setting [4]) was 0.058 µM; in test [2] (setting [5]), at most 0.2 µM; in test [2] (setting [6]), 0.049 µM.

For the origin of these results see patent US11028090B2 (Dong Wha Pharm. Co., Ltd., priority 2017, dated 2021).
